Where two headings read alike, the source gives them in different places.
Columns and labels:
[1] = Lambrecht and Mutschler, Arzneim. forsh. 24 (11) 1725, 1974; cited from earlier work
muscarinic receptors [2] = test: Radio ligand binding: displacement of 3H-Oxotremorine-M (muscarinic agonist) from rat cerebral cortex membranes; set-up: species or system Hooded Lister rats; details: displacement of 2 nM 3H-OXO-M, 2 mM magnesium chloride, 37° C., 30 min, tested as oxalate salts
muscarinic receptors [3] = assay type: binding, Hooded Lister rats; details: displacement of 0.27 nM 3H-QNB; rat cerebral cortex; 37° C., 30 min; tested as oxalate salts

Compound	cholinergic activity [1]	IC50 (muscarinic receptors [2]) [nM]	IC50 (muscarinic receptors [3]) [nM]
COC(=O)C1CN2CCC1CC2 (stereo not shown) [3-Methoxycarbonylquinuclidine]	possess cholinergic activity		
c1coc([C@H]2C[C@@H]3CCCN(C3)C2)n1 (relative stereo) [E9, (±) exo-3-(1,3-Oxazol-2-yl 1-azabicyclo[3.3.1]nonane]		160	3100
c1nnc(C2CN3CCC2CC3)o1 (racemic) [E8, (±) 3-(1,3,4-Oxadiazol-2-y.)-1-azabicyclo[2.2.2]octane]		2800	63000
Cc1noc([C@@H]2CN3CC[C@@H]2C3)n1 (relative stereo) [E10, (±) exo-3-(3-Methyl-1,2,4-oxadiazol-5-yl)-1-azabicyclo [2.2.1]heptane]		3.5	1100
Cc1nc(C2CN3CCC2CC3)no1 (racemic) [E2, (±) 3-(5-Methyl-1,2,4-oxadiazol-3-yl)-1-azabicyclo [2.2.2]octane]		1100	17000
Cc1noc([C@H]2C[C@@H]3CCN(C3)C2)n1 (relative stereo) [E3, (±) exo-3-(3-Methyl-1,2,4-oxadiazol-5-yl)-1-azabicyclo [3.2.1]octane]		25	1840
c1coc(C2CN3CCC2CC3)n1 (racemic) [E5, (±) 3-(1,3-Oxazol-2-yl)-1-azabicyclo[2.2.2]octane]		630	27000
Cc1nnc(C2CN3CCC2CC3)o1 (racemic) [E4, (±) 3-(5-Methyl-1,3,4-oxadiazol-2-yl)-1-azabicyclo [2.2.2]octane]		1000	15000
Cc1noc(C2CN3CCC2CC3)n1 (racemic) [E1, (±) 3-(3-Methyl-1,2,4-oxadiazol-5-yl)-1-azabicyclo [2.2.2]octane]		15	1840
Cc1noc([C@@H]2CN3CCC[C@@H]2C3)n1 (relative stereo) [E6, (±) exo-6-(3-Methyl-1,2,4-oxadiazol-5-yl)-1-azabicyclo [3.2.1]octane]		41	2300
